Series [1] concerns TZM-bl cells. Also on record: method as in literature. The following applies: not measured here; ref literature; cited from earlier work.
The test system of series [2] is HIV-1 Env-pseudoviruses (30-strain panel). The experiment in a line: Neutralization assay, cross-clade 30-strain panel (Env-pseudoviruses, TZM-bl target cells). The class given is cell-based. The following applies: for IC50: Human immunodeficiency virus 1, TZM-bl; for number of viruses neutralized: of the 30 viruses. On the procedure:
Neutralization was measured using single-round-of-infection HIV-1 Env-pseudoviruses and TZM-bl target cells (ARP Cat No. #8129)[44],[45]. Compounds were prepared at 400 μM with 4% DMSO (dimethyl sulfoxide) in PBS (phosphate-buffered saline) and diluted 20 times as the starting concentration for serial dilution in the neutralization assays. […] After incubation at 37 °C for 2 days, infection of target cells was measured by luciferase activity. Neutralization curves were fit by nonlinear regression using a five-parameter hill slope equation[45].

The subject of series [3] is TZM-bl cells. Put plainly: Cytotoxicity in the neutralization assay (TZM-bl cells + drugs). The following applies: highest concentration (20 μM).
Another series deals with HIV-1 strain NL4-3. Put plainly: Entry inhibition of laboratory-adapted HIV-1 strain NL4-3. The format is cell-based.
The mark [4] stands for this setting: 242-14 (Clade AG), read-out: IC50.
The mark [5] stands for this setting: 247-23 (Clade D), read-out: IC50.
Setting [6] is: 0330.v4.c3 (Clade A), read-out: IC50.
[7] abbreviates: 7165.18 (Clade B), read-out: IC50.
[8] abbreviates: BJOX028000.10.3 (Clade AE), read-out: IC50.
Where [9] appears, read: BL01.DG (Clade B), read-out: IC50.
Where [10] appears, read: C4118.09 (Clade AE), read-out: IC50.
The mark [11] stands for this setting: CAP210.E8 (Clade C), read-out: IC50.
Where [12] appears, read: CH119.10 (Clade BC), read-out: IC50.
[13] abbreviates: CNE10 (Clade B), read-out: IC50.
Setting [14] is: CNE20 (Clade BC), read-out: IC50.
The mark [15] stands for this setting: CNE56 (Clade AE), read-out: IC50.
[16] abbreviates: DJ263.8 (Clade AG), read-out: IC50.
The mark [17] stands for this setting: DU156.12 (Clade C), read-out: IC50.
Setting [18] is: Geomean, 30-strain panel, read-out: Geometric mean IC50.
Where [19] appears, read: KER2008.12 (Clade A), read-out: IC50.
Setting [20] is: MB201.A1 (Clade A), read-out: IC50.
Where [21] appears, read: NKU3006.ec1 (Clade D), read-out: IC50.
The mark [22] stands for this setting: P0402.c2.11 (Clade G), read-out: IC50.
Where [23] appears, read: PVO.04 (Clade B), read-out: IC50.
Where [24] appears, read: R3265.c6 (Clade AE), read-out: IC50.
Setting [25] is: REJO.67 (Clade B), read-out: IC50.
[26] abbreviates: T253-11 (Clade AG), read-out: IC50.
Setting [27] is: T280-5 (Clade AG), read-out: IC50.
Setting [28] is: ZM106.9 (Clade C), read-out: IC50.

Entries after “also recorded” stand apart in the source; their conditions may differ. Read-outs that look alike come from different tables or passages of the source.

Take `COc1ccnc2[nH]cc(C(=O)C(=O)N3CCN(C(=O)c4ccccc4)C[C@H]3C)c12` [BMS-378806, 4-benzoyl-1-[(4-methoxy-1H-pyrrolo[2,3-b]pyridin-3-yl)oxoacetyl]-2-(R)-methylpiperazine, reference compound]: in the series with TZM-bl cells [1], the Cytotoxicity result is “lack of cytotoxicity”. Besides, in series [2] (read-out: Geometric mean IC50), the IC50 was above 0.912 µM.
On to `O=C(C(=O)N1CCN(C(=O)c2ccccc2)CC1)c1c[nH]c2c(F)ccc(Br)c12` [BMS-386150], for which the “fold lower neutralization potency than BMS-378806” value in series [2] (30-strain panel) is given as ~ 7 fold. Further, the IC50 in series [2] (setting [4]) is 7.02 µM; in series [2] (setting [5]), above 20 µM; in series [2] (setting [6]), above 20 µM; in series [2] (426c (Clade C), read-out: IC50), 6.62 µM; in series [2] (setting [7]) it was above 20 µM; in series [2] (B41 (Clade B), read-out: IC50), 0.117 µM. In addition, the IC50 in series [2] (setting [8]) was above 20 µM; in series [2] (setting [9]), above 20 µM; in series [2] (setting [10]), above 20 µM; in series [2] (setting [11]), above 20 µM; in series [2] (setting [12]) it was 13.7 µM; in series [2] (setting [13]), 0.509 µM. In addition, the IC50 was above 20 µM in series [2] (setting [14]); above 20 µM in series [2] (setting [15]); above 20 µM in series [2] (setting [16]); 1.35 µM in series [2] (setting [17]); above 6.72 µM in series [2] (setting [18]); above 20 µM in series [2] (setting [19]). The IC50 in series [2] (setting [20]) was above 20 µM; in series [2] (setting [21]), 0.256 µM; in series [2] (setting [22]) it was above 20 µM; in series [2] (setting [23]), 0.664 µM; in series [2] (setting [24]), above 20 µM; in series [2] (setting [25]), above 20 µM. For the same compound, the IC50 in series [2] (setting [26]) amounted to 0.541 µM; in series [2] (setting [27]) it was 2.02 µM; in series [2] (setting [28]), 10.8 µM; in series [2] (read-out: IC50) it was 4.67 µM.
Consider `COc1cnc(-c2csc(CN(C)CCCN(C)C)n2)c2[nH]cc(C(=O)C(=O)N3CCC(=C(C#N)c4ccccc4)CC3)c12` [BMS-814508], for which, in the series with TZM-bl cells [3], the Cytotoxicity entry was “showed cytotoxicity; also recorded: Cytotoxicity was observed”. The same compound registered an EC50 with HIV-1 strain NL4-3 (Human immunodeficiency virus 1, NL43, NL4-3) of 0.000495 ± 6.9e-05 µM. For the same compound, in the series with HIV-1 strain NL4-3 (NL4-3 EC50), the “fold more potent than BMS-626529” value is given as 4 fold. In addition, the IC50 in series [2] (setting [4]) worked out at 0.015 µM; in series [2] (setting [5]), 0.016 µM; in series [2] (setting [6]), 0.096 µM; in series [2] (426c (Clade C), read-out: IC50), 0.036 µM; in series [2] (setting [7]) it was 0.491 µM; in series [2] (B41 (Clade B), read-out: IC50), 0.001 µM. The IC50 in series [2] (setting [8]) is above 4 µM; in series [2] (setting [9]), 2.81 µM; in series [2] (setting [10]), 2 µM; in series [2] (setting [11]) it was 0.4 µM; in series [2] (setting [12]), 0.004 µM; in series [2] (setting [13]), 0.004 µM. In addition, the IC50 in series [2] (setting [14]) was 0.143 µM; in series [2] (setting [15]), above 4 µM; in series [2] (setting [16]), below 0.0003 µM; in series [2] (setting [17]), 0.02 µM; in series [2] (setting [18]), above 0.051 µM; in series [2] (setting [19]), 0.165 µM. Also, the IC50 came out at 0.192 µM in series [2] (setting [20]); 0.001 µM in series [2] (setting [21]); 0.012 µM in series [2] (setting [22]); 0.002 µM in series [2] (setting [23]); 1.06 µM in series [2] (setting [24]); 2.73 µM in series [2] (setting [25]). For the same compound, the IC50 is below 0.0003 µM in series [2] (setting [26]), 0.0008 µM in series [2] (setting [27]), 0.031 µM in series [2] (setting [28]) and 0.008 µM in series [2] (read-out: IC50). The “number of viruses neutralized” value in series [2] stood at 28.
With `O=C(c1ccsc1)N1CCN(C(=O)C2(c3cccc(Cl)c3)CC2)CC1` [Compound 484, reference compound], the IC50 in series [2] (setting [4]) was above 20 µM; in series [2] (setting [5]), above 20 µM; in series [2] (setting [6]), above 20 µM; in series [2] (426c (Clade C), read-out: IC50), 13.4 µM; in series [2] (setting [7]), above 20 µM; in series [2] (B41 (Clade B), read-out: IC50) it was 1.73 µM. The IC50 in series [2] (setting [8]) is above 20 µM; in series [2] (setting [9]) it was above 20 µM; in series [2] (setting [10]), above 20 µM; in series [2] (setting [11]), above 20 µM; in series [2] (setting [12]), above 20 µM; in series [2] (setting [13]), 1.94 µM. The IC50 in series [2] (setting [14]) was above 20 µM; in series [2] (setting [15]) it was above 20 µM; in series [2] (setting [16]), 2.78 µM; in series [2] (setting [17]), 7.69 µM; in series [2] (setting [18]) it was above 12.3 µM; in series [2] (setting [19]) it was above 20 µM. Moreover, the IC50 was above 20 µM in series [2] (setting [20]); 1.65 µM in series [2] (setting [21]); above 20 µM in series [2] (setting [22]); 7.87 µM in series [2] (setting [23]); above 20 µM in series [2] (setting [24]); above 20 µM in series [2] (setting [25]). The IC50 in series [2] (setting [26]) is 3.35 µM; in series [2] (setting [27]), 11.9 µM; in series [2] (setting [28]), above 20 µM; in series [2] ([…], read-out: IC50) it was 13.6 µM; in series [2] (read-out: IC50), above 20 µM. Moreover, the “number of viruses neutralized” value in series [2] came to 11.

(Values after paper PMC6318274, “Lattice engineering enables definition of molecular features allowing for potent small-molecule inhibition of HIV-1 entry” (Nature Communications, 2019).)
